Assay [1] deals with extracellular HBeAg level (surrogate marker for cccDNA) in HepDES19 cells. As to the kind of experiment: HepDES19 primary screen assay. The format is cell-based, HBV. Particulars: Hepatitis B virus, 120 h, 5 days compound incubation, HBeAg ELISA. The text has this:
The assay was employed to primarily screen for novel cccDNA inhibitors. HepDES19 is an engineered cell line which contains a 1.1 unit length HBV genome, and pgRNA transcription from the transgene is controlled by Tetracycline (Tet). In the absence of Tet, pgRNA transcription will be induced, but HBV e antigen (HBeAg) could not be produced from this pgRNA due to the fact that the very short leader sequence before the HBeAg start codondisrupted the start codon. Only after cccDNA is formed, the missing leader sequence and start codon mutation would be restored from the 3′-terminal redundancy of pgRNA, and then HBeAg could be synthesized. Therefore, HBeAg could be used as a surrogate marker for cccDNA (Zhou, T. et al., Antiviral Res(2006), 72(2), 116-124; Guo, H. et al., J. Virol (2007), 81(22), 12472-12484).
HepDES19 cells were seeded at 2×10^6 cells per T150 flask and cultured with the culture medium (Dulbecco's Modified Eagle Medium: Nutrient Mixture F-12 (DMEM:F12, Gibco Cat. 11320-82), 10% Fetal Bovine Serum (FBS, Clontech Cat. 631101), 0.1 mM Non-Essential Amino Acids Solution (NEAA, Gibco Cat. 11140-050), 50 μg/mL Penicillin-Streptomycin (PS, Invitrogen Cat. 15140-163), 500 μg/mL Geneticin (G418, Invitrogen Cat. 10131-027) containing 3 μg/mL Tet (Sigma, Cat. 87128) for 5 days. Cells were then seeded at 4×10^6 cells per T150 in the same culture medium as described above in the absence of Tet for 8 days. Cells were then harvested and frozen at density of 2×10^6 cells per mL. For compound testing, the frozen cells were thawed and seeded into 96-well plates at a density of 6×10^4 cells per well. At 24 hrs after seeding, half log serial dilutions of compounds made with Dimethyl sulfoxide (DMSO, Sigma, Cat. D2650) were further diluted with the same culture medium as described above before they were added to the cells to reach desired final compound concentrations and 1% DMSO concentration. Plates were then incubated at 37° C. for another 5 days before measurement of HBeAg level and cell viability. Extracellular HBeAg level were measured with enzyme-linked immunosorbent assay (ELISA) kit (Shanghai Kehua Diagnostic Medical Products Co., Ltd). Cell viability was assessed using Cell Counting Kit-8 (Donjindo, Cat. CK04-20). IC50 values were derived from the dose-response curve using 4 parameter logistic curve fit method.
The compounds of the present invention were tested for their capacity to inhibit extracellular HBeAg level as described herein.
(ELISA stands for enzyme-linked immunosorbent assay.)

Assay [2] relates to extracellular HBsAg level in HBV-infected PHH. As to the kind of experiment: Cryopreserved primary human hepatocytes (PHH) assay, HBsAg. The format is cell-based. Particulars: Hepatitis B virus, Hepatocyte, 216 h, read-out: HBsAg IC50. As for the experimental part: Cryopreserved PHH (BioreclamationIVT, Lot YJM) was thawed at 37° C. and gently transferred into pre-warmed InVitroGRO HT medium (BioreclamationIVT, Cat. S03317). The mixture was centrifuged at 70 relative centrifugal force (RCF) for 3 minutes at RT, and the supernatant was discarded. Pre-warmed InVitroGRO CP medium (BioreclamationIVT, Cat # S03316) was added to the cell pellet to gently re-suspend cells. The cells were seeded at the density of 5.8×10^4 cells per well to collagen I coated 96-well plate (Gibco, Cat. A1142803) with the InVitroGRO CP medium. All plates were incubated at 37° C. with 5% CO2 and 85% humidity.
At 20 hours after plating, the medium was changed to PHH culture medium (Dulbecco's Modified Eagle Medium (DMEM)/F12 (1:1) (Gibco, Cat. 11320-033), 10% fetal bovine serum (Gibco Cat. 10099141), 100 U/mL penicillin, 100 μg/mL streptomycin (Gibco, Cat. 151401-122), 5 ng/mL human epidermal growth factor (Invitrogen Cat. PHG0311L), 20 ng/mL dexamethasone (Sigma, Cat. D4902) and 250 ng/mL human recombinant insulin (Gibco, Cat. 12585-014)). And the cells were incubated at 37° C. with 5% CO2 and 85% humidity for 4 hours. The medium was then changed to pre-warmed PHH culture medium containing 4% polyethylene glycol (PEG) MW8000 (Sigma, Cat. P1458-50ML) and 1% DMSO (Sigma, Cat. D2650). 5.8×10^6 genomic equivalents of HBV were added into the medium.
At 24 hours post-infection, the cells were gently washed with PBS and refreshed with PHH culture medium supplemented with 1% DMSO, and 0.25 mg/mL Matrix gel (Corning, Cat. 356237) at 200 μL per well. All plates were immediately placed in at 37° C. CO2 incubator.
24 hours later, serial dilutions of compounds made with DMSO were further diluted with the same culture medium (PHH culture medium supplemented with 1% DMSO and 0.25 mg/mL Matrix gel as described above) before they were added to the cells to reach desired final compound concentrations and 1% DMSO concentration. The medium containing the compounds were refreshed every three days.
At 9 days post-compound treatment, extracellular HBsAg level were measured with Chemiluminescence Immuno Assay (CLIA) kit (Autobio, HBsAg Quantitative CLIA). Extracellular HBV DNA was extracted by MagNA Pure 96 system (Roche) and then determined by quantitative PCR with the following primers and probe: HBV-Forward Primer (SEQ ID NO:2): […] (5′ to 3′); HBV-Reverse Primer (SEQ ID NO:3): […](5′ to 3′); HBV-Probe: 5′+tetramethylrhodamine+SEQ ID NO:4+black hole quencher 2-3′, wherein SEQ ID NO:4 is […].
HBsAg IC50 and HBV DNA IC50 values were derived from the dose-response curve using 4 parameter logistic curve fit method.

The test system of assay [3] is cccDNA level in HepDES19 cells. Put plainly: cccDNA Southern Blot assay. The format is cell-based, HBV. Particulars: 5 days' compound treatment, Hirt DNA, serial dilutions. As for the experimental part: HepDES19 cells were seeded at 4×10^6 cells per T150 in the culture medium (Dulbecco's Modified Eagle Medium: Nutrient Mixture F-12 (DMEM:F12, Gibco Cat. 11320-82), 10% Fetal Bovine Serum (FBS, Clontech Cat. 631101), 0.1 mM Non-Essential Amino Acids Solution (NEAA, Gibco Cat. 11140-050), […] Penicillin-Streptomycin (PS, Invitrogen Cat. 15140-163), 500 μg/mL Geneticin (G418, Invitrogen Cat. 10131-027) in the absence of Tet for 8 days. These cells were seeded at the density of 1×10^6 cells per well in 6-well plate. At 24 hrs after seeding, serial dilutions of compounds made with DMSO (Sigma, Cat. D2650) were further diluted with the same culture medium as described above before they were added to the cells to reach desired final compound concentrations and 1% DMSO concentration. After 5 days' compound treatment, the cells growing in one well from 6-well plate were re-suspended with 500 μL re-suspension buffer (50 mM tris[hydroxymethyl]aminomethane pH 7.5), 10 mM ethylenediaminetetraacetic acid (EDTA), 50 μg/mL RNase A (Qiagen, Cat. 158922). 500 μL of 1.2% sodium dodecyl sulfate (SDS) was then added into the re-suspended cells to lyse the cells. After 15 minutes' incubation, 700 μL precipitation buffer (3M cesium chloride, 1M potassium acetate, 0.67M acetic acid) was added and the lysate was incubated at 4° C. for 2 h. The lysate was centrifuged at 15000 revolutions per minute (RPM) at 4° C. for 15 minutes. The supernatant was collected and loaded onto Qiagen miniprep columns (QIAprep spin Mini prep kit, Cat. No. 27016). After centrifugation for 1 minute at 15000 RPM, the column was washed once with 750 µL wash buffer PE from QIAprep spin Mini prep kit. 80 μL of double distilled water was loaded to the columns to elute Hirt DNA.
Hirt DNA of each sample was loaded into 1.2% lx tris-acetate electrophoresis (TAE) agarose gel and separated at 90 voltages for 3 hours. The gel was then treated in 50 mM NaAc—HAc, pH4.2 for 30 min at room temperature (RT), and then denatured by soaking in denaturation buffer (0.5 M sodium hydroxide, 1.5 M sodium chloride) at RT for 30-45 min. The gel was then treated with neutralization buffer (1M tris[hydroxymethyl]aminomethane pH7.4 and 1.5M NaCl) at RT for 30 to 45 min.
The gel was transferred onto a pre-wet Nylon membrane (GE life science, Hybond N+) by capillary transfer method overnight, followed by UV crosslinking. The membrane was transferred into a hybridization tube, then rinsed with double distilled water at 60° C. for 5 mins. 10 mL of hybridization buffer (Lab kits, China) was added, the resulting sample was rotated in hybridization oven at 60° C. for 1 hour. Digoxigenin (DIG)-labelled HBV probe (SEQ ID NO: 1) was denatured at 95° C. for 10 minutes, and then 7 μL of denatured probe was added to the hybridization tube, which was rotated in hybridization oven at 60° C. overnight.
On the second day, the membrane was washed according to the procedure of DIG wash and block buffer set kit (Roche, Cat. 11 585 762 001), and then incubated with 50 mL antibody solution (Antibody anti-Digoxigenin-AP Fab fragment (Roche Cat. 11093274910) diluted in fresh 1× blocking buffer at 1:10,000) for 1 hour. The membrane was washed with 50 mL washing buffer (1× Maleic buffer with 0.3% Tween-20) for 15 minutes twice, and equilibrated with 20 mL detection buffer (0.1M tris[hydroxymethyl]aminomethane pH9.5, 0.1M sodium chloride) for 5 minutes. CDP-Star substrate (Roche, Cat. 12041677001) was added to the membrane for 5 minutes, and then the membrane was scanned by Bio-Rad Visualize Image System (Biorad, ChemiDoc-MP, Serial No. 731BR00916).

The source of these data is patent US10611748B2, “Xanthone derivatives for the treatment of hepatitis B virus disease” (Hoffmann-La Roche Inc., priority 2017, dated 2020).

As usually defined, the IC50 is the concentration needed to halve the response being measured.

In the case of `O=C(O)C1CCN(c2ccc3c(=O)c4cccc(Cl)c4sc3c2)C1` (stereo not drawn) [Example 6, 1-(5-chloro-9-oxo-thioxanthen-3-yl)pyrrolidine-3-carboxylic acid], the IC50 is 4940 nM in assay [1] and 5.06 µM in assay [2].

In assay [1], `O=C(O)C1CCN(c2ccc3c(=O)c4cccc(Br)c4oc3c2)C1` (stereo not drawn) [Example 7, 1-(5-bromo-9-oxo-xanthen-3-yl)pyrrolidine-3-carboxylic acid] gave an IC50 of 3560 nM. Moreover, the “cccDNA level in HepDES19 cells (Southern Blot)” value in assay [3] is reported as “dose-dependently reduced cccDNA level”.

Turning to `Cc1cc2c(=O)c3cccc(Cl)c3oc2cc1N1CCC(C(=O)O)C1` (stereo not drawn) [Example 39, 1-(5-chloro-2-methyl-9-oxo-xanthen-3-yl)pyrrolidine-3-carboxylic Acid], the IC50 in assay [1] was found to be 1080 nM; in assay [2], 3.18 µM.

Regarding `Cc1ccc(Cl)c2oc3cc(N4CCC(C(=O)O)C4)ccc3c(=O)c12` (stereo not drawn) [Example 40, 1-(5-chloro-8-methyl-9-oxo-xanthen-3-yl)pyrrolidine-3-carboxylic Acid], the IC50 in assay [1] was determined as 1310 nM; in assay [2], 1.69 µM.

For `O=C(O)C1CCN(c2cc3oc4c(Cl)cccc4c(=O)c3cn2)C1` (stereo not drawn) [Example 41, 1-(6-chloro-10-oxo-chromeno[3,2-c]pyridin-3-yl)pyrrolidine-3-carboxylic Acid], the IC50 in assay [1] turned out to be 4040 nM; in assay [2], 8.08 µM.

In the case of `O=C(O)C1CCN(c2cc3oc4c(Cl)cccc4c(=O)c3cc2F)C1` (stereo not drawn) [Example 42, 1-(5-chloro-2-fluoro-9-oxo-xanthen-3-yl)pyrrolidine-3-carboxylic Acid], the half-maximal inhibitory concentration (IC50) in assay [1] worked out at 1170 nM; in assay [2] it was 7.74 µM.

Turning to `O=C(O)C1CCN(c2cc3oc4c(Cl)cccc4c(=O)c3cc2Cl)C1` (stereo not drawn) [Example 43, 1-(2,5-dichloro-9-oxo-xanthen-3-yl)pyrrolidine-3-carboxylic Acid], the IC50 was found to be 1110 nM in assay [1] and 8.22 µM in assay [2].

In the case of `N#Cc1ccc(Cl)c2oc3cc(N4CCC(C(=O)O)C4)ccc3c(=O)c12` (stereo not drawn) [Example 44, 1-(5-chloro-8-cyano-9-oxo-xanthen-3-yl)pyrrolidine-3-carboxylic Acid], the IC50 is 1100 nM in assay [1] and 12.4 µM in assay [2].

Take `O=C(O)C1CCN(c2ccc3c(=O)c4c(O)ccc(Cl)c4oc3c2)C1` (stereo not drawn) [Example 53, 1-(5-chloro-8-hydroxy-9-oxo-xanthen-3-yl)pyrrolidine-3-carboxylic Acid]: the 50% inhibitory concentration (IC50) in assay [1] amounted to 3430 nM; in assay [2], 8.12 µM.

For `O=C(O)C1CCN(c2ccc3c(=O)c4c(F)ccc(Cl)c4oc3c2)C1` (stereo not drawn) [Example 66, 1-(5-chloro-8-fluoro-9-oxo-xanthen-3-yl)pyrrolidine-3-carboxylic Acid], the values for the IC50 in assay [1] and in assay [2] were 1910 nM and 8.48 µM, respectively.

For the molecule `O=C(O)C1CCN(c2ccc3c(=O)c4c(C(F)(F)F)ccc(Cl)c4oc3c2)C1` (stereo not drawn) [Example 67, 1-[5-chloro-9-oxo-8-(trifluoromethyl)xanthen-3-yl]pyrrolidine-3-carboxylic Acid], the half-inhibitory concentration (IC50) stood at 390 nM in assay [1] and 1.29 µM in assay [2].

With `COc1cc(O[C@@H]2O[C@H](CO)[C@@H](O)[C@H](O)[C@H]2O)c2c(=O)c3c(O)ccc(O)c3oc2c1` [Swertianolin, 5,8-dihydroxy-3-methoxy-1-[(2S,3R,4S,5S,6R)-3,4,5-trihydroxy-6-(hydroxymethyl)tetrahydropyran-2-yl]oxy-xanthen-9-one, reference compound], the IC50 was over 100000 nM in assay [1] and over 100 µM in assay [2].
